According to patent US20240391904A1, “DIHYDROPYRIMIDINE BASED COMPOUND, PREPARATION METHOD THEREFOR AND USE OF THEREOF” (CHENGDU SHIBEIKANG BIOMEDICAL TECHNOLOGY CO., LTD., priority 2021, published 2024):
Marks after values point to notes of the source that are not given here.

Key:
KM mice = assay: Mouse cough test (ammonia-induced coughing); type: in vivo; conditions: for reduction in the number of coughs at 3 mg/kg: compared with model group; for duration of the cough suppression action / cough suppressing effect compared with the positive compound: 30 mg/kg; for duration of the cough suppression action: 30 to 120 min after administration; for Number of Coughs (time): mice
Excerpt: Compounds of Example 1-24 (synthesized in the inventor's laboratory), positive control drug (gefapixant, batch No: 01030-210326-2-1, purchased from Holder Pharmaceuticals), the compound of Comparative Example 1 (synthesized in the inventor's laboratory).
Healthy adult KM mice, half of them are male and half of them are female, 6 per group, weighing about 28-30 g.
Most of the animal coughing models currently reported in the literatures use mechanical, chemical and electrical stimulations to stimulate the nerves and receptors of the animals to trigger coughing. According to the characteristics of the candidate compounds and the existing similar target compounds for reference, the method of concentrated ammonia induction was initially chosen to establish the cough modeling test in mice.
Preparation of 50% ammonia solution: 2.5 ml of ammonia was dissolved in […] of a 0.9% sodium chloride solution for injection and mixed evenly.
Preparation of a solution of the compound of Comparative Example 1: 9 mg of the compound of Comparative Example 1 was weighed and dissolved in 3 ml of a 0.5% CMC-Na solution, and mixed evenly to prepare a 3 mg/ml solution.
Preparation of a solution of the example compounds: 9 mg of the example compound was weighed and dissolved in 3 ml of a 0.5% CMC-Na solution, and mixed evenly to prepare a 3 mg/ml solution.
Grouping: a positive control group, a Comparative Example 1 group, Example 1 group-Example 24 group, and a model group were set up. Six KM mice were taken from each group and administered by gavage; here, the Comparative Example 1 group was given the compound of Comparative Example 1, the positive control group was given the positive control drug (gefapixant, commercially purchased), the Example groups were given the compounds prepared in the corresponding Examples, with each group given one of three dosages: 30 mg/kg, […], and 3 mg/kg; and the model group was given the same volume of 0.5% CMC-Na solution.
30 min, 60 min or 120 min after administration, the mice were placed in a 500 ml beaker with a cotton ball (weight 100±5 mg) containing 0.3 ml of 50% ammonia.
(1) Judgment criteria of coughing: coughing was manifest in contraction of abdominal muscles or chest contraction, with mouth wide opening and a coughing sound.
(2) The number of coughs (times) within 3 min was recorded with a stopwatch, and the data were statistically analyzed by software, with the data in each group shown in mean±standard deviation. A one-way analysis of variance among the groups was conducted, and P<0.05 was considered a difference having a statistical significance.

SD rats = assay: Taste disorder test (quinine water versus tap water intake); type: in vivo, rat; conditions: for effect on the taste sense: 10 mg/kg intravenously, quinine/tap water ratio compared with vehicle group; for Quinine/tap water (%): 10 mg/kg tail intravenous injection, 0-15 min after administration, 0.3 mM quinine hydrochloride water versus tap water
Description: Compounds of Examples 1, 9, 12, 15, 16, 24 (synthesized in the laboratory of the present inventor), the positive control drug (gefapixant, batch No: 01030-210326-2-1, purchased from Holder Pharmaceuticals).
0.9% sodium chloride solution for injection, quinine hydrochloride (Quinie, batch No: C12476271)
Healthy adult SD rats, all males, weighing about 280-300 g.
Preparation of 0.3 mM quinine solution: 119.20 mg of quinine hydrochloride was weighed and dissolved in 1000 ml of tap water, and mixed evenly.
Preparation of the test sample solution: 40 mg of a test sample was dissolved in DMSO and a solution of the solubilizer HS-15 was added, mixed evenly, and 16 ml of saline was added to formulate a 2.5 mg/ml solution.
Animal and grouping: male SD rats weighed about 160-180 g each, with 10 of a similar average weight in each group, were housed in seperate cages.
Drinking habit training: each group was given normal drinking water for 30 minutes at 8:30 am and 16:30 pm every day, and no access of water for the rest of the day for 5 days, and two bottles of water were changed every day at the left and right positions.
Administration: with no access to water the night before the experiment, in the following morning the test group was given 4 mL/kg (10 mg/kg) of the test sample by tail intravenous injection, and the model group was given 4 mL/kg (10 mg/kg) of 0.5% HS-15 by intravenous injection.
The animals were allowed to drink freely for 15 min, and the amount of water consumed from the two bottles was measured to the nearest 0.1 ml.
(2) Statistical analysis of the data: the drinking volume of the quinine bitter water and tap water were recorded separately, as well as the percentage of quinine water to the tap water, and the significance of the difference between the groups was determined by ANOVA.

human P2X3 receptor = target: T1, human P2X3 receptor (Homo sapiens, UniProt P56373); assay: In vitro bioactivity evaluation: FLIPR antagonist mode, HEK 293 cells stably transfected with human P2X3 receptor, BZATP agonist
T1 sequence (P56373 1-397): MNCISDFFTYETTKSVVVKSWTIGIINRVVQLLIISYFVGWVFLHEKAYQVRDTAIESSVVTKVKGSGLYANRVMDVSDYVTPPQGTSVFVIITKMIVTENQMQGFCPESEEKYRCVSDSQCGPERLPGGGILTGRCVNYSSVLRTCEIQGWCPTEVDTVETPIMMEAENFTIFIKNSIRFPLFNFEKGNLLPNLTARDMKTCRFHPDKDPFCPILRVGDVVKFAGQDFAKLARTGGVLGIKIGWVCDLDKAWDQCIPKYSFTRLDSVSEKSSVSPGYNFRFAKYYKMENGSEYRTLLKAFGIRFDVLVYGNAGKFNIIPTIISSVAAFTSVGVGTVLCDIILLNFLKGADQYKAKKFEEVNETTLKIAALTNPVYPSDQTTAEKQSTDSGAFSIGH
Description: Cell culture medium: DMEM high glucose; 10% FBS; 1% PenStrep.
The Petri dish was placed in an incubator for 1-3 minutes or until the cells were digested, 3 mL of a complete medium was then added to terminate the digestion, and the cell density was determined by a cell counter. • 2) After centrifugation at 1000 rpm/min for 5 min, the cells were resuspended in a growth medium and the volume of the suspension was adjusted to reach a cell density of 4×10^5 cells/mL (1×10^4 cells/25 μL). • 3) 10 μL of 5× Matrigel was added into a black microplate, and the microplate was placed in an incubator for 15 min. The microplate was removed and invertedly centrifuged at 300 g/min for 30 s to remove the 5× Matrigel.

[1] = cited from earlier work
[2] = 3 mg/kg by gavage, 60 min after administration, coughs within 3 min
[3] = 10 mg/kg by gavage, 60 min after administration, coughs within 3 min
[4] = 30 mg/kg by gavage, 30 min after administration, coughs within 3 min, ammonia-induced
[5] = 30 mg/kg by gavage, 60 min after administration, coughs within 3 min (Table 5)
[6] = 30 mg/kg by gavage, 60 min after administration, coughs within 3 min (Table 6)
[7] = 30 mg/kg by gavage, 120 min after administration, coughs within 3 min

effect on the taste sense (SD rats) | Quinine/tap water (%) (SD rats) | IC50 (human P2X3 receptor) [nM] | Structure (SMILES) | reduction in the number of coughs at 3 mg/kg (KM mice; 60 min after administration) | cough suppressing efficacy at 10 mg/kg (KM mice; 60 min after administration) | duration of the cough suppression action (KM mice) | cough suppressing effect compared with the positive compound (KM mice; 30 min after administration) | Number of Coughs (time) (KM mice; [2]) | Number of Coughs (time) (KM mice; [3]) | Number of Coughs (time) (KM mice; [4]) | Number of Coughs (time) (KM mice; [5]) | Number of Coughs (time) (KM mice; [6]) | Number of Coughs (time) (KM mice; [7]) | primary efficacy endpoint ([1]; 15 mg twice a day) | 24-hour cough frequency ([1]; 45 mg twice a day, Week 12 (COUGH-1) and Week 24 (COUGH-2), compared to placebo) | discontinuation due to adverse events ([1]; 45 mg) | taste-related adverse events ([1]; 45 mg)
little or no effect on the taste sense | 39.61%^Δ | < 10 | C[C@@H](Cn1c(=O)cc(Nc2ccc(Oc3cccc(F)n3)cc2)n(Cc2ccc(Cl)cc2)c1=O)C(=O)NS(C)(=O)=O [Compound 24] | statistically significant (P<0.01) reduction in the number of coughs | improved cough suppressing efficacy than the positive control drug | significantly prolonged compared with that of the compound of Comparative Example 1 | stronger than that of the positive compound | 25.45** time | 24.14**^Δ time | 17.07** time | 21.33** time | 21.33** time | 25.14**^Δ time |  |  |  | 
little or no effect on the taste sense | 42.53%^Δ | < 10 | C[C@@H](Cn1c(=O)cc(Nc2ccc(Oc3ncccc3F)cc2)n(Cc2ccc(Cl)cc2)c1=O)C(=O)NS(C)(=O)=O [Compound 16, (S)-3-(3-(4-chlorobenzyl)-4-(4-(3-(3-fluoropyridin-2-yl)oxyphenyl)amino)-2,6-dioxo-3,6-dihydropyrimidin-1(2H)yl)-2-methyl-N-(methylsulfonyl)propionamide group] | statistically significant (P<0.01) reduction in the number of coughs | improved cough suppressing efficacy than the positive control drug | significantly prolonged compared with that of the compound of Comparative Example 1 |  | 23.81** time | 15.13**^Δ time | 19.34** time | 16.11** time | 16.11** time | 18.13**^Δ time |  |  |  | 
little or no effect on the taste sense | 39.84%^Δ | 10.1 to 50 | C[C@@H](Cn1c(=O)cc(Nc2ccc(Oc3ccccn3)cc2)n(Cc2ccc(Cl)cc2)c1=O)C(=O)NS(C)(=O)=O [Compound 9] | statistically significant (P<0.01) reduction in the number of coughs | improved cough suppressing efficacy than the positive control drug | significantly prolonged compared with that of the compound of Comparative Example 1 | stronger than that of the positive compound | 25.37** time | 19.54**^Δ time | 13.62** time | 16.33** time | 16.33** time | 23.83**^Δ time |  |  |  | 
little or no effect on the taste sense | 40.22%^Δ | 10.1 to 50 | CS(=O)(=O)NC(=O)C1(Cn2c(=O)cc(Nc3ccc(Oc4ccccn4)cc3)n(Cc3ccc(Cl)cc3)c2=O)CC1 [Compound 15] | statistically significant (P<0.01) reduction in the number of coughs | improved cough suppressing efficacy than the positive control drug | significantly prolonged compared with that of the compound of Comparative Example 1 | stronger than that of the positive compound | 24.83** time | 20.83**^Δ time | 18.64** time | 16.33** time | 16.33** time | 23.83**^Δ time |  |  |  | 
little or no effect on the taste sense | 41.48%^Δ | < 10 | COC(=O)[C@@H](C)Cn1c(=O)cc(Nc2ccc(Oc3cnccn3)cc2)n(Cc2ccc(Cl)cc2)c1=O [Compound 1] |  |  |  | stronger than that of the positive compound |  |  | 15.33** time |  |  |  |  |  |  | 
little or no effect on the taste sense | 37.18%^Δ | < 10 | CC(C)(Cn1c(=O)cc(Nc2ccc(Oc3ccccn3)cc2)n(Cc2ccc(Cl)cc2)c1=O)C(=O)NS(C)(=O)=O [Compound 12] |  | improved cough suppressing efficacy than the positive control drug | significantly prolonged compared with that of the compound of Comparative Example 1 | stronger than that of the positive compound | 33.17 time | 21.17**^Δ time | 15.67** time | 17.17** time | 17.17** time | 20.17*^Δ time |  |  |  | 
significant effect on the taste sense | 79.01%** |  | COc1cc(C(C)C)c(Oc2cnc(N)nc2N)cc1S(N)(=O)=O [Positive control, gefapixant, reference compound] |  | did not have a significant effect in reducing coughs |  |  |  | 38.83 time | 20.33* time | 23.83** time |  |  | not met | statistically significant reduction | higher frequency | higher incidence
